Test results: article PMC9810691, “Structure-guided peptide engineering of a positive allosteric modulator targeting the outer pore of TRPV1 for long-lasting analgesia” (Nature Communications, 2023)
Values joined by “and” are separate entries in the source; they are usually repeats but may differ in a detail not shown here. Equal entries are not always repeated.

Key:
[1] = system: CFA-induced chronic inflammatory pain model mice; format: in vivo; conditions: capsaicin alone (with saline) or with linear or folded s-RhTx; words
Protocol: Mechanical allodynia was assessed via von Frey test as previously reported. Mice were placed in a plexiglass chamber upon the elevated metal mesh with 1 cm openings and allowed to acclimatize for 1 h. To determine mechanical thresholds of paw withdrawal, a series of von Frey filaments (0.02–2.56 g, Stoelting Co.) with increasing stiffness were used according to Dixon’s up-down method.

wildtype mice = format: in vivo
Protocol: Adult C57 BL/6 mice (male, 8–10 weeks) and Trpv1^-/- mice (Jax Strain #:003770) were used for behavioral studies. To specifically label Trpv1-positive nerve fibers in skin tissues, Trpv1-Cre mice[36] (Jax Strain #:017769) were crossed with floxed reporter lines (Ai32, Jax Strain #:012569 or Ai14, Jax Strain #:007914) to get the transgenic reporter (Trpv1-Ai32 or Trpv1-Ai14) mice. Mice were group-housed at 22–24 °C and relative humidity of 30–70% under the 12 h light-dark cycle with access to standard food and water ad libitum. All the animal procedures were approved by the Institutional Animal Care & Use Committee (IACUC) of Zhejiang University. […]
Spontaneous pain was measured by counting the time (s) mice spent on licking, lifting, or flinching the affected hind paws over a 10-min period after i.pl. injection.

[2] = system: CFA-induced chronic inflammatory pain model mice; assay: CFA-induced heat hyperalgesia (Hargreaves test); format: in vivo; conditions: capsaicin alone (with saline) or with linear or folded s-RhTx; words
Protocol: Thermal sensitivity was tested using a Hargreaves radiant heat apparatus (IITC Life Science) as previously reported[40],[41]. For heat hyperalgesia test in CFA model, the basal paw withdrawal latency was adjusted to 9 to 12 s, with a cutoff of 20 s to prevent tissue damage. For thermal sensitivity test, the basal paw withdrawal latency was adjusted to 4 to 6 s, with a cutoff of 10 s to prevent tissue damage. Withdrawal latency were averaged from three consecutive tests with a 5 min interval between measurements.

TRPV1 [3] = molecular target: T1, TRPV1 (Mus musculus, UniProt Q704Y3); assay: Calcium imaging, HEK293T cells expressing TRPV1; format: cell-based, murine
Protocol: (§1) HEK293T cells are cultured using DMEM medium contained 10% FBS in a cell incubator with 5% CO2 at 37 °C. Plasmids of murine TRPV1, TRPV2, TRPV3 and human TRPA1 are labeled with YFP or GFP as indicators for subsequent electrophysiological recordings. cDNA constructs of ion channels were transiently transfected with Lipofectamine 2000 (Invitrogen, Carlsbad, CA). And one or 2 days after transient transfection, electrophysiological recordings were performed.
Calcium imaging assay was performed as previously described[12],[20]. In brief, HEK293T cells expressing TRPV1 were incubated with 2 μM Fluo-4 AM (Thermo Fisher) in 2 mM calcium Ringer’s solution (140 mM NaCl, 5 mM KCl, 2 mM MgCl2, 2 mM CaCl2, 10 mM glucose, and 10 mM HEPES, pH 7.4). Fluorescence images of HEK293T cells were acquired with Nikon Eclipse Ti2 microscope with optiMOS charge-coupled device camera controlled by the Ocular Software (Molecular Devices). Fluo-4 AM was excited at 500/20-nm excitation, and fluorescence emission was detected at 535/30-nm. Fluorescence images were analyzed with Fiji software and Office Excel.

TRPV1 [4] = molecular target: T1, TRPV1; assay: Capsaicin-induced desensitization of TRPV1 (WT) in calcium; format: cell-based, murine
Protocol: as §1
(§2) Patch-clamp recordings were carried out with a HEKA EPC10 amplifier controlled by PatchMaster software (HEKA). Patch pipettes were prepared from borosilicate glass and fire-polished to resistance of 3–8 MΩ by P-97 puller. Both bath solution and pipette solution contained 130 mM NaCl, 10 mM glucose, 0.2 mM EDTA, and 3 mM HEPES and were adjusted to pH 7.2–7.4 with NaOH for whole-cell recordings. For solution with pH lower than 6.5, HEPES was replaced by MES. Whole-cell recordings were performed at ±80 mV. Current was sampled at 10 kHz and filtered at 2.9 kHz. All recordings were performed at room temperature (25 °C). A gravity-driven system (RSC-200, Bio-Logic) with freely rotated perfusion tubes was used for the perfusion of peptide or ligands. Bath and ligand solution were delivered through separate tubes to minimize the mixing of solutions. […]
(§3) Data from whole-cell recordings were analyzed in Igor Pro version 5.05 (WaveMatrix). […]

[5] = system: Trpv1+ nerve fibers, Trpv1-Ai32 / Trpv1-Ai14 mice; assay: Trpv1+ intra-epidermal nerve fiber (IENF) quantification; format: in vivo; conditions: capsaicin 200 ng alone or with 2 μg peptide
Protocol: Adult C57 BL/6 mice (male, 8–10 weeks) and Trpv1^-/- mice (Jax Strain #:003770) were used for behavioral studies. To specifically label Trpv1-positive nerve fibers in skin tissues, Trpv1-Cre mice[36] (Jax Strain #:017769) were crossed with floxed reporter lines (Ai32, Jax Strain #:012569 or Ai14, Jax Strain #:007914) to get the transgenic reporter (Trpv1-Ai32 or Trpv1-Ai14) mice. Mice were group-housed at 22–24 °C and relative humidity of 30–70% under the 12 h light-dark cycle with access to standard food and water ad libitum. All the animal procedures were approved by the Institutional Animal Care & Use Committee (IACUC) of Zhejiang University.
After appropriate survival times, the mice were deeply anesthetized with isoflurane and perfused through the ascending aorta with PBS, followed by 4% PFA. After the perfusion, the hind paw glabrous skins and L4-L6 DRGs were removed and postfixed in the same fixative overnight. Skin sections (30 μm) and DRG sections (10 μm) were cut in a cryostat. Sections were blocked with 2% BSA for 2 h at room temperature and then incubated with Deep-red 640/660-conjugated Nissl (1:1000) at room temperature for 2 h. Sections were then incubated with DAPI (1:10,000, Vector Laboratories, catalog H-1200) for 5 min, followed by three times washing with PBS for 5 min each. The stained and mounted sections were examined with a Nikon fluorescence microscope, and images were captured with a charge-coupled device Spot camera. For quantification analysis, at least three sections from each mouse were selected, and at least three mice were analyzed in each group. To evaluate Trpv1-positive nerve fiber degeneration, transgenic reporter (Trpv1-Ai32 or Trpv1-Ai14) mice were used for the quantification of intra-epidermal nerve fiber (IENF) density. IENF density was calculated by counting the number of IENF crossing the epidermis-dermis boundary within unit length.

TRPV1 K604E = assay: Desensitization, TRPV1 mutant K604E; format: cell-based, murine; conditions: 10 μM cap alone or + 30 μM s-RhTx; single cells; listed as cap
Protocol: Site mutations of mTRPV1 were generated by Fast Mutagenesis Kit (Takara Bio). Primers used to generate point mutations are summarized in Supplementary Table 1. All mutations were confirmed by sequencing.
as §2, with “solutions. Patch pipette holding cells was placed in front of the perfusion tube outlet for perfusion.” for “solutions.”
as §3

T1 sequence (Q704Y3 whole entry): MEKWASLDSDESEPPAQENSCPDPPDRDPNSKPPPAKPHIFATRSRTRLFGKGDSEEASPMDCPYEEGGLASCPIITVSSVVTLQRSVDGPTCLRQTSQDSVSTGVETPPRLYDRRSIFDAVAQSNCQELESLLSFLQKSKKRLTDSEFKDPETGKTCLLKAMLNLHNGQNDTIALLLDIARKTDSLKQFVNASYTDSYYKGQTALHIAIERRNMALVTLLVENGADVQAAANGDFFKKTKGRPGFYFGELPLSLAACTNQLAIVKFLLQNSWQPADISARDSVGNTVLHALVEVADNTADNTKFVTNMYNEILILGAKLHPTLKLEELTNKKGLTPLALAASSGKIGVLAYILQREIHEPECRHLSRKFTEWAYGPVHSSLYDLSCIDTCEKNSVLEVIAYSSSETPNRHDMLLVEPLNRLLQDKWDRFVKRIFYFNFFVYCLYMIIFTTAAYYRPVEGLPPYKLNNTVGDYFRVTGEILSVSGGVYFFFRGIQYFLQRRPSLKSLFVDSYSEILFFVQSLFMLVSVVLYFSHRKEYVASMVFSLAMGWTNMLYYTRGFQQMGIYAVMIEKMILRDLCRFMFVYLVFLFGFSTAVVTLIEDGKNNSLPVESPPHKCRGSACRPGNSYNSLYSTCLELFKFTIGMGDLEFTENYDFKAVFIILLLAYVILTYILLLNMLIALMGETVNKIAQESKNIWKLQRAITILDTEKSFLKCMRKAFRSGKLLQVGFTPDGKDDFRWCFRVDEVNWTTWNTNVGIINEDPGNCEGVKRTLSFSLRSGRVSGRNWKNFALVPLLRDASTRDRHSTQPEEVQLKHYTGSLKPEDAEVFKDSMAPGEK

## COc1cc(CNC(=O)CCCC/C=C/C(C)C)ccc1O [capsaicin, Capsaicin]
[1]
  effect on CFA-induced mechanical allodynia: robust and prolonged mechanical allodynia
Wildtype mice; capsaicin 200 ng alone or with 2 μg peptide, i.pl., words
  spontaneous pain behavior, with capsaicin: caused a mild spontaneous pain behavior
Wildtype mice; capsaicin 200 ng i.pl. alone (cap) or with 2 μg linear or folded s-RhTx, 20 μl, individual mice, listed as Cap
  total time of spontaneous pain within 10 min, with capsaicin: 63.91 s and 41.04 s and 20.17 s and 30.43 s and 88.51 s and 98.54 s and 102.03 s and 29.73 s and 145.77 s
[2]
  effect on CFA-induced heat hyperalgesia: slow recovery from heat hyperalgesia
TRPV1 [3]
  calcium influx: cannot induce discernable calcium influx
TRPV1 [4]
  AUC of desensitization (mean): 72.39 ± 6.61 and 39.25 ± 5.01
  desensitization time constant tau (mean): 47.37 ± 6.14 s and 23.87 ± 3.97 s
[5]; individual mice, listed as Cap
  IENF number, with capsaicin: 11 and 9 and 12
[5]; words
  number of Trpv1+ IENF, with capsaicin: little effect on the number of Trpv1^+ IENF
TRPV1 K604E
  desensitization time constant, K604E: 46.184 s and 35.399 s and 63.872 s and 58.758 s and 34.354 s and 64.15 s
